Reference: patent US20220096609A1 (priority 2019, published 2022)
“Also recorded” adds a separate entry of the source.

Columns and labels:
[1] = test system: mouse phrenic nerve hemidiaphragm; parameters: species or system CD-1 mice
[2] = test system: mouse phrenic nerve hemi-diaphragm; parameters: species or system CD-1 mice

Row | Structure (SMILES) | faster BoNT/A onset (time required for 50% paralysis) [1] | increase of (initial) amplitude of muscle tension [1] | onset of paralysis compared with 30 pM BoNT/A in the absence of 4-AP [1] | higher concentration of toxin required to induce an equivalent reduction in time for 90% paralysis as caused by DAP [2] [times] | muscle denervation compared with BoNT/E alone [2] | muscle tension response / neurotransmission [2] | onset of neuroparalysis [2] | reduction of the therapeutically effective amount of BoNT/E compared with BoNT/E administered alone [2] | time taken for 50% paralysis (TTP50) [2] | time taken for 90% paralysis (TTP90) [2] | uptake of BoNT/E [2]
1 | Nc1ccncc1 [4-AP, 4-aminopyridine] | approximately 25% | approximately 2.5 fold | progressed faster; also recorded: increased the onset of paralysis | – | – | – | – | – | – | – | –
2 | Nc1ccncc1N [DAP, 3,4-diaminopyridine] | – | – | – | 6 | faster muscle denervation | elevated muscle tension response; also recorded: enhanced neurotransmission | faster onset of neuroparalysis | 25-600% | faster time | faster time | increased uptake
